Reference: US20120283203A1, “METHODS AND COMPOSITIONS FOR THE TREATMENT OF OBESITY, INSULIN RELATED DISEASES AND HYPERCHOLESTEROLEMIA” (Board of Trustees of Michigan State University, priority 2005, published 2012)
Values joined by “and” are separate entries in the source; they are usually repeats but may differ in a detail not shown here. Identical values can stand only once. “Also recorded” adds a separate entry of the source. One block for each molecule: values may come before it.

Experiments:
[1] = Body weight of C57BL/6J mice on high fat diet, 12-week feeding study; type: in vivo; details: for weight gain during the treatment period: 8 weeks of treatment in high fat diet, high fat control 9.76 g; for overall weight gain during the experimental period: 12 weeks, high fat control 18.98 g; for weight loss: compared to the high fat diet controls; for body weight: high fat diet with compound, high fat control 36.91 g, normal diet 31.5 g
Description: Animals and Diet: Male C57BL/6J mice, 4 weeks old, were purchased from Jackson Laboratories (Bar Harbor, Me., USA). The mice were individually housed under controlled temperature (70° F.) and 12 h light-dark cycles. The mice (n=40) had free access to water and laboratory non-purified diet for 5 days. After acclimatization, the mice were randomly divided into groups 1-5 (n=8) for the study. The experiments were carried out according to the ethical guidelines of University Laboratory Animal Resources (ULAR) at Michigan State University, East Lansing, Mich. The diets, 10% K. Cal. (normal) and 60% K. Cal. (high fat), were purchased from Research Diets (New Brunswick, N.J.). The controls were groups 1 and 2 and received normal (10% K. Cal.) and high fat (60% K. Cal.) diets, respectively, throughout the study. The food was prepared for each treatment separately by mixing 1 g of pure anthocyanin mixture, 500 mg each of betulinic and ursolic acids per kilogram high fat diet. The treatment groups, 3-5, were fed initially for 4 weeks with the high fat diet and then switched to the diet containing anthocyanins, betulinic acid or ursolic acids. Food was changed at intervals of three days to avoid oxidation of the fat or compounds. The daily food intake (FIG. 1) and the weekly body weight for each animal were determined throughout the study (FIG. 2A-C).

[2] = Glucose tolerance test (i.p. glucose 2 g/kg) in high fat diet fed mice; type: in vivo, C57BL/6J mice; details: for blood glucose level after 90 min of glucose load: 90 min after 2 g/kg i.p. glucose, high fat control 363, normal diet 190
Description: Glucose Tolerance Test (GTT). The glucose tolerance test was performed on five animals from each group (n=5) after 6 weeks of supplementation. The blood glucose level was measured at time 0 (min) with a Free Style Flash (TheraSense, Inc., CA) handheld glucometer using the test strips (Free Style, TheraSense, Inc., CA). For GTT, a sterile solution containing 2 g of glucose per kg body weight was injected intraperitoneally (i.p.). The tail vein blood was collected and glucose levels measured at 5, 10, 15, 30, 60, and 90 min, respectively. The blood glucose levels were plotted against the time (FIG. 3).

[3] = Total plasma cholesterol at end of feeding study; type: in vivo, C57BL/6J mice; details: high fat control 156.4, normal diet 120.5
Description: Collection of serum, liver and adipose tissue. The feeding was terminated after 12 weeks.
Determination of Plasma Cholesterol: The total plasma cholesterol was analyzed by Clinical Pathology Laboratory at the Diagnostic Center for Population and Animal Health, College of Veterinary Medicine, Michigan State University according to the established standard analytical protocol for total cholesterol.

[4] = for plasma insulin level: end of feeding, controls 0.47 and 0.41 ng/mL
Description: Collection of serum, liver and adipose tissue. The feeding was terminated after 12 weeks. The animals were then anesthetized by using isoflurane, sacrificed and blood was collected by cardiac puncture in heparinized tubes. The plasma was separated by centrifugation at 1600×g for 10 min at 4° C., frozen immediately and stored at −20° C. until use. […] All tissues were then transferred from liquid nitrogen and stored at −80° C. until analyses.
Radio Immuno Assay (RIA). The plasma insulin levels were measured by rat insulin RIA kit purchased from LINCO Research Inc. (St. Charles, Mo.). The insulin standards (100 aliquots) were pipetted to 12×75 mm test tubes. A total of 10 concentrations of insulin, ranging from 0.1-10 ng/mL, were used to determine the standard curve. The plasma samples (aliquots of 1-25 μl) were added to test tubes and the assay buffer was added to attain a total sample volume of 100 μl. The ^125I labeled insulin and anti rat insulin antibody (100 μL each) were added to the tubes, mixed and incubated at 4° C. After 24 h, the precipitating reagent (1 mL) was added and incubated again at 4° C. for 20 min to precipitate the insulin bound to the antibody. The tubes were then centrifuged for 20 min at 3000 g, decanted and the radioactivity was measured using a gamma counter.

INS-1 832/13 cells = test: Insulin secretion by INS-1 832/13 pancreatic beta cells (RIA, normalized to cellular protein); type: cell-based, rodent; details: for increase in insulin secretion: increase over untreated cells; for fold increase in insulin secretion: vs untreated cells
Description: Insulin Secretion Studies. INS-1 832/13 cells (kindly provided by Dr Christopher Newgard, Duke University, N.C.) were routinely cultured in 5% CO2/air at 37° C. in RPMI-1640 medium containing 11.1 mM glucose and supplemented with 10% FBS (Fetal Bovine Serum), 10 mM HEPES, 100 U/ml penicillin, […] streptomycin, 4 mM Glutamine, 1 mM sodium pyruvate, and 50 μM 2-mercaptoethanol. Cells were passed weekly after trypsin-EDTA detachment. For static secretion studies, cells were plated on 24 well plates at a density of 0.64×10^6 cells per well and grown for 24 h. The cells were then cultured for an additional 24 h in RPMI-1640 containing 4 mM glucose and the supplements described above. Cells were then incubated twice for 30 min in Krebs Ringer Bicarbonate buffer (KRBB) containing 4 mM glucose and 0.1% BSA. Cells were rapidly washed with KRBB and incubated for 60 min KRBB containing 4 or 10 mM glucose with or without the indicated anthocyanins or anthocyanidins. The medium was then removed for determining insulin release. The cells were then washed twice with PBS and dissolved in 1 M NaOH. Cellular protein concentration was then determined by Lowry assay. Anthocyanins and anthocyanidins were dissolved in DMSO to obtain desired concentrations. Final concentration of DMSO was 0.1%. The insulin secreted into the medium by the cells was determined by radioimmuno assay and normalized to total cellular protein.
Radio Immuno Assay (RIA). The Kit for RIA was purchased from LINCO Research Inc. (St Charles, Mo.), and the assay was conducted according to the manufacturer's directions. Briefly, 0.1-10 ng of insulin standards (100 μl) were added to 12×75 mm test tubes. Similarly, samples (25 μl) from the insulin secretion studies were also added to the test tubes. To this, an aliquot (75 μl) of assay buffer was added. The ^125I labeled insulin (100 μl) was then added to each test tube. […] The tubes were then centrifuged and the radioactivity was measured using a gamma counter.
Lowry protein Assay. The amount of protein in the assay wells was determined by Lowry method. The Lowry assay solution was prepared by combining the Lowry solution, CuSO4.5H2O (1%), and sodium tartarate (1%). Briefly, the protein sample (100 μl) and Lowry mixture (1 mL) were mixed in a test tube (12×75). The Folin-Ciolatues reagent (100 μl) was added to these tubes, mixed, and incubated for 30 min at room temperature. The optical density of resulting solutions was read at 700 nm using a UV spectrophotometer.

[5] = 4 and 10 mM glucose, or glucose level not specified

Molecule: C=C(C)[C@@H]1CC[C@]2(C(=O)O)CC[C@]3(C)[C@H](CC[C@@H]4[C@@]5(C)CC[C@H](O)C(C)(C)[C@@H]5CC[C@]43C)[C@@H]12 [betulinic acid]
weight gain during the treatment period [1]: 7.73 ± 0.44 g | weight gain during the treatment period ([1]; listed as 2 (group 4)): 7.73 g | overall weight gain during the experimental period [1]: 15.16 g | weight loss [1]: 21% | body weight [1]: 33.54 g | blood glucose level after 90 min of glucose load [2]: 317.8 ± 21.9 mg/dL | blood glucose level at zero time ([2]; before glucose load, high fat control 119.8): 123.4 ± 6.0 mg/dL | plasma cholesterol level [3]: 126.5 ± 14.01 mg/dL | plasma insulin level [4]: 460 ± 93.68 ng/mL and 460.86 ± 193.68 ng/mL

Molecule: OC[C@H]1O[C@@H](Oc2cc3c(O)cc(O)cc3[o+]c2-c2ccc(O)c(O)c2)[C@H](O)[C@@H](O)[C@H]1O [cyanidin-3-galactoside]
effect on insulin secretion (in words) (INS-1 832/13 cells; 4 mM glucose): did not increase the insulin secretion | increase in insulin secretion (INS-1 832/13 cells; 10 mM glucose, 50 μg/mL): 17 ng/mg of protein | fold increase in insulin secretion (INS-1 832/13 cells; 10 mM glucose, 50 μg/mL): 1.2 fold | effect on insulin secretion (in words) (INS-1 832/13 cells; [5]): significant increase in insulin secretion

Molecule: OC[C@H]1O[C@@H](Oc2cc3c(O)cc(O)cc3[o+]c2-c2ccc(O)c(O)c2)[C@H](O)[C@@H](O)[C@@H]1O [cyanidin-3-glucoside]
effect on insulin secretion (in words) (INS-1 832/13 cells; 4 mM glucose): less active than delphinidin-3-glucoside | insulin secreted (INS-1 832/13 cells; 4 mM glucose, 5 μg/mL, untreated cells 33): 46 ng of insulin per mg protein | increase in insulin secretion (INS-1 832/13 cells; 4 mM glucose, 50 μg/mL): 9 ng/mg of protein | fold increase in insulin secretion (INS-1 832/13 cells; 4 mM glucose, 50 μg/mL): 1.3 fold | dose dependent insulin secretion (in words) (INS-1 832/13 cells; 4 mM glucose, 10, 50, 100 and 250 μg/mL): no significant difference in insulin secretion | effect on insulin secretion (in words) (INS-1 832/13 cells; 10 mM glucose): more active | insulin secreted (INS-1 832/13 cells; 10 mM glucose, 50 μg/mL): 119 ng/mg protein | fold increase in insulin secretion (INS-1 832/13 cells; 10 mM glucose, 50 μg/mL): 1.43 fold | effect on insulin secretion (in words) (INS-1 832/13 cells; [5]): most effective insulin secretagogues

Molecule: Oc1cc(O)c2cc(O)c(-c3ccc(O)c(O)c3)[o+]c2c1 [cyanidin]
insulin secreted (INS-1 832/13 cells; 4 mM glucose, 50 μg/mL): 29 ng/mg of protein | fold increase in insulin secretion (INS-1 832/13 cells; 4 mM glucose, 50 μg/mL): 1.5 fold | insulin secreted (INS-1 832/13 cells; 10 mM glucose, 50 μg/mL): 88 ng/mg protein

Molecule: OC[C@H]1O[C@@H](Oc2cc3c(O)cc(O)cc3[o+]c2-c2cc(O)c(O)c(O)c2)[C@H](O)[C@@H](O)[C@@H]1O [delphinidin-3-glucoside]
insulin secreted (INS-1 832/13 cells; 4 mM glucose, 50 μg/mL): 49 ng/mg of protein | fold increase in insulin secretion (INS-1 832/13 cells; 4 mM glucose, 50 μg/mL): 1.8 fold | insulin secreted (INS-1 832/13 cells; 10 mM glucose, 50 μg/mL): 113 ng/mg protein | fold increase in insulin secretion (INS-1 832/13 cells; 10 mM glucose, 50 μg/mL): 1.4 fold | effect on insulin secretion (in words) (INS-1 832/13 cells; [5]): most effective insulin secretagogues; also recorded: significantly induced the insulin secretion | effect on insulin secretion (in words) (INS-1 832/13 cells; 4 and 10 mM glucose, or glucose level not specified, listed as Delphinidin-3-glucoside): most active anthocyanin tested

Molecule: Oc1cc(O)c2cc(O)c(-c3cc(O)c(O)c(O)c3)[o+]c2c1 [delphinidin]
increase in insulin secretion (INS-1 832/13 cells; 4 mM glucose, 50 μg/mL): 6 ng/mg of protein

Molecule: OCC1OC(Oc2cc3c(O)cc(O)cc3[o+]c2-c2ccc(O)cc2)C(O)C(O)C1O (stereo not shown) [pelargonidin-3-galactoside]
effect on insulin secretion (in words) (INS-1 832/13 cells; 4 mM glucose): did not increase the insulin secretion | effect on insulin secretion (in words) (INS-1 832/13 cells; [5]): did not induce insulin secretion

Molecule: Oc1ccc(-c2[o+]c3cc(O)cc(O)c3cc2O)cc1 [pelargonidin]
insulin secreted (INS-1 832/13 cells; 4 mM glucose, 50 μg/mL): 49 ng/mg of protein | fold increase in insulin secretion (INS-1 832/13 cells; 4 mM glucose, 50 μg/mL): 1.4 fold | insulin secreted (INS-1 832/13 cells; 10 mM glucose, 50 μg/mL): 91 ng/mg protein | fold increase in insulin secretion (INS-1 832/13 cells; 10 mM glucose, 50 μg/mL): 1.2 fold

Molecule: COc1cc(-c2[o+]c3cc(O)cc(O)c3cc2O)cc(O)c1O [petunidin]
increase in insulin secretion (INS-1 832/13 cells; 4 mM glucose, 50 μg/mL): 4 ng/mg of protein

Molecule: C[C@H]1[C@H](C)CC[C@]2(C(=O)O)CC[C@]3(C)C(=CC[C@@H]4[C@@]5(C)CC[C@H](O)C(C)(C)[C@@H]5CC[C@]43C)[C@H]12 [ursolic acid]
weight gain during the treatment period ([1]; listed as 3 (group 5)): 8.78 g | overall weight gain during the experimental period [1]: 17.45 g | effect on body weight (in words) ([1]; compared to high fat diet control): did not decrease bodyweight of the treated animals significantly | weight loss [1]: not significant | body weight [1]: 34.89 g | blood glucose level after 90 min of glucose load [2]: 227 ± 22.982 mg/dL | time at which blood glucose concentration reached the maximum ([2]; after glucose injection): 60 min | glucose tolerance / insulin resistance (in words) ([2]; high fat diet fed mice): corrected glucose levels similar to control group animals fed on normal diet; also recorded: overcame the insulin resistance; also recorded: glucose absorption was slow | plasma insulin level [4]: 52.25 ± 8.84 ng/mL and 52.25 ± 18.84 ng/mL

hypoglycemia ([4]; mouse, in vivo): without causing hypoglycemia
Molecule: anthocyanins
